# Data reported in PubChem BioAssay (NCI).
#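 All cell lines were grown in 96-well plates and treated with compound for 48 hours. The concentration for full growth arrest is given as TGI.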
# Key:
# Test in all cases: NCI tumour cell line growth inhibition, 48 h
# [1] = system: MALME-3M melanoma
# [2] = system: IGROV1 ovarian
# [3] = system: TK-10 renal
# [4] = system: RPMI-8226 leukemia
# [5] = system: HCT-15 colon
# [6] = system: NCI-H23 lung
# [7] = system: KM20L2 colon
# [8] = system: SNB-75 CNS
# [9] = system: COLO 205 colon
# [10] = system: OVCAR-5 ovarian
# [11] = system: SK-OV-3 ovarian
# [12] = system: EKVX NSCLC
# [13] = system: NCI-H460 lung
# [14] = system: SF-295 CNS
# [15] = system: HOP-92 NSCLC
# [16] = system: KM12 colon
# [17] = system: SN12C renal
# [18] = system: UO-31 renal
# [19] = system: UACC-62 melanoma
# [20] = system: LXFL 529 NSCLC
# [21] = system: 786-0 renal
# [22] = system: HCC-2998 colon
# [23] = system: SNB-78 CNS
# [24] = system: UACC-257 melanoma
# [25] = system: A549 NSCLC
# [26] = system: OVCAR-8 ovarian
# [27] = system: HOP-62 NSCLC
# [28] = system: SK-MEL-2 melanoma
# [29] = system: DMS 273 small cell lung
# [30] = system: DMS 114 small cell lung
# [31] = system: M19-MEL melanoma
# [32] = system: CCRF-CEM leukemia
# [33] = system: K-562 leukemia
# [34] = system: SK-MEL-28 melanoma
# [35] = system: HL-60(TB) leukemia
# [36] = system: OVCAR-4 ovarian
# [37] = system: LOX IMVI melanoma
# [38] = system: OVCAR-3 ovarian
# [39] = system: M14 melanoma
# [40] = system: DLD-1 colon
# [41] = system: MOLT-4 leukemia
# [42] = system: SW-620 colon
# [43] = system: RXF 393 renal
# [44] = system: NCI-H522 lung
# [45] = system: SK-MEL-5 melanoma
# [46] = system: SNB-19 CNS
# [47] = system: ACHN renal
# [48] = system: CAKI-1 renal
# [49] = system: HT29 colon
# [50] = system: SF-539 CNS
# [51] = system: A498 renal
# [52] = system: U251 CNS
# [53] = system: NCI-H226 lung
# [54] = system: SR leukemia
# [55] = system: SF-268 CNS
# [56] = system: HCT-116 colon
smiles,measurement,setting,value
C#CCC(O)c1ccccc1C(O)CC#C (stereo unspecified),TGI,[1],> 100 µM
same,TGI,[2],> 100 µM
same,TGI,[3],> 100 µM
same,TGI,[4],> 100 µM
same,TGI,[5],> 100 µM
same,TGI,[6],> 100 µM
same,TGI,[7],> 100 µM
same,TGI,[8],> 100 µM
same,TGI,[9],> 100 µM
same,TGI,[10],> 100 µM
same,TGI,[11],> 100 µM
same,TGI,[12],> 100 µM
same,TGI,[13],> 100 µM
same,TGI,[14],> 100 µM
same,TGI,[15],> 100 µM
same,TGI,[16],> 100 µM
same,TGI,[17],> 100 µM
same,TGI,[18],> 100 µM
same,TGI,[19],> 100 µM
same,TGI,[20],> 100 µM
same,TGI,[21],> 100 µM
same,TGI,[22],> 100 µM
same,TGI,[23],> 100 µM
same,TGI,[24],> 100 µM
same,TGI,[25],> 100 µM
same,TGI,[26],> 100 µM
same,TGI,[27],> 100 µM
same,TGI,[28],> 100 µM
same,TGI,[29],> 100 µM
same,TGI,[30],> 100 µM
same,TGI,[31],> 100 µM
same,TGI,[32],> 100 µM
same,TGI,[33],> 100 µM
same,TGI,[34],> 100 µM
same,TGI,[35],> 100 µM
same,TGI,[36],> 100 µM
same,TGI,[37],> 100 µM
same,TGI,[38],> 100 µM
same,TGI,[39],> 100 µM
same,TGI,[40],> 100 µM
same,TGI,[41],> 100 µM
same,TGI,[42],> 100 µM
same,TGI,[43],95.2 µM
same,TGI,[44],> 100 µM
same,TGI,[45],> 100 µM
same,TGI,[46],> 100 µM
same,TGI,[47],> 100 µM
same,TGI,[48],> 100 µM
same,TGI,[49],> 100 µM
COc1ccccc1C=NC12CC3CC(CC(C3)C1)C2,TGI,[1],> 100 µM
same,TGI,[3],> 100 µM
same,TGI,[4],> 100 µM
same,TGI,[5],> 100 µM
same,TGI,[6],> 100 µM
same,TGI,[7],> 100 µM
same,TGI,[50],> 100 µM
same,TGI,[8],> 100 µM
same,TGI,[9],> 100 µM
same,TGI,[10],> 100 µM
same,TGI,[11],> 100 µM
same,TGI,[51],> 100 µM
same,TGI,[52],> 100 µM
same,TGI,[12],> 100 µM
same,TGI,[13],> 100 µM
same,TGI,[14],> 100 µM
same,TGI,[15],> 100 µM
same,TGI,[16],> 100 µM
same,TGI,[53],> 10 µM
same,TGI,[17],> 100 µM
same,TGI,[54],> 100 µM
same,TGI,[18],> 100 µM
same,TGI,[19],> 100 µM
same,TGI,[21],> 100 µM
same,TGI,[22],> 100 µM
same,TGI,[24],> 100 µM
same,TGI,[25],> 100 µM
same,TGI,[26],> 100 µM
same,TGI,[27],> 100 µM
same,TGI,[28],> 100 µM
same,TGI,[29],> 100 µM
same,TGI,[30],> 10 µM
same,TGI,[31],> 100 µM
same,TGI,[32],> 100 µM
same,TGI,[33],> 100 µM
same,TGI,[34],> 100 µM
same,TGI,[35],> 100 µM
same,TGI,[36],> 100 µM
same,TGI,[37],> 100 µM
same,TGI,[55],> 100 µM
same,TGI,[38],> 100 µM
same,TGI,[39],> 100 µM
same,TGI,[41],> 100 µM
same,TGI,[42],> 100 µM
same,TGI,[43],> 100 µM
same,TGI,[44],> 100 µM
same,TGI,[45],> 100 µM
same,TGI,[46],> 100 µM
same,TGI,[47],> 100 µM
same,TGI,[48],> 100 µM
same,TGI,[49],> 100 µM
same,TGI,[56],> 10 µM
